The values below come from patent US7465729B2, “Methods of treatment of menopause and perimenopause using eszopiclone” (Sepracor Inc., priority 2004, dated 2008).

For one data set, the system named is conscious dogs. Nature of the data set: Dose escalation safety study, cardiovascular and respiratory parameters. Conditions: for cardiotoxicity, as evidenced by the electrocardiogram (ECG) / effect on blood pressure / effect on heart rate / Blood gases and blood chemistries (pH, pCO2, pO2, hematocrit, and lactate): acute intravenous, 3, 5 and 12 mg/kg; for Blood gases and blood chemistries (pH, pCO2, pO2, hematocrit, and lactate): all dose groups. Here is the method: To establish the safety of eszopiclone, a dose escalation study was carried out. Cardiovascular and respiratory parameters were evaluated in conscious dogs following acute intravenous administration of (R)-, (S)- or racemic zopiclone at three doses (3, 5 and 12 mg/kg).

The test system of data set [1] is mice. In words: Antimuscarinic activity in vivo: mydriasis. Conditions: any dose tested, maximum dose 100 mg/kg, p.o. Here is the method: (§1) Eszopiclone was evaluated for antimuscarinic activity in vivo.
For data set [2], the system named is mice. Nature of the data set: Antimuscarinic activity in vivo: oxotremorine induced salivation. Conditions: doses up to 300 mg/kg, p.o. Here is the method:
as §1

The subject of data set [3] is benzodiazepine receptor complex. Conditions: cited from earlier work.
The conditions of data set [4]: in vivo; cited from earlier work.
The test system of a further data set is plasma proteins. Conditions: cited from earlier work.

SMILES strings stand for the structures.

In the case of `CN1CCN(C(=O)OC2c3nccnc3C(=O)N2c2ccc(Cl)cn2)CC1` (racemic) [racemic zopiclone], in the data set on conscious dogs, the “cardiotoxicity, as evidenced by the electrocardiogram (ECG)” value is listed as “No evidence of cardiotoxicity”; the “effect on blood pressure” value is “dose dependent, transient decreases in blood pressure”; the “effect on heart rate” value was “compensatory increase in heart rate”; the “Blood gases and blood chemistries (pH, pCO2, pO2, hematocrit, and lactate)” value is recorded as “remained unaffected”. The mydriasis entry with mice [1] is “did not produce mydriasis”. Also, the “antagonism of oxotremorine induced salivation” value with mice [2] is reported as “neither (R)-, (S)-, nor racemic zopiclone significantly antagonized oxotremorine induced salivation”. Besides, the “binding to the benzodiazepine receptor complex” value in data set [3] is recorded as “binds to the benzodiazepine receptor complex, or to a site linked closely to this receptor complex”. Further, the “absorption from the stomach” value in data set [4] was “well absorbed”. In the data set on plasma proteins, the “binding to plasma proteins” value was “not highly bound”.

Consider `CN1CCN(C(=O)O[C@@H]2c3nccnc3C(=O)N2c2ccc(Cl)cn2)CC1` [(R)-zopiclone], for which, in the data set with conscious dogs, the “cardiotoxicity, as evidenced by the electrocardiogram (ECG)” value was “No evidence of cardiotoxicity”; the “effect on blood pressure” value is on record as “no effect”; the “effect on heart rate” value is reported as “no effect”; the “Blood gases and blood chemistries (pH, pCO2, pO2, hematocrit, and lactate)” value is “remained unaffected”. Besides, in the data set on conscious dogs (intravenous, 12 mg/kg), the hemodynamic effect result is reported as “did not produce a consistent hemodynamic effect”. Also, the “antagonism of oxotremorine induced salivation” value in the data set on mice [2] is reported as “neither (R)-, (S)-, nor racemic zopiclone significantly antagonized oxotremorine induced salivation”.
